According to patent US5691311A (Biogen, Inc., priority 1995, dated 1997):
pKi: −log10 of the molar value. Where two headings read alike, the source gives them in different places. Each block holds one molecule with its values, some of them ahead of it.

Experiments:
[1] = tested on: human α-thrombin (1.6 nM chromogenic assay; 0.25 μM HPLC assay); test: human α-thrombin in 20 mM Tris-HCl pH 7.4 containing 0.1M NaCl
[2] = tested on: platelet-dependent thrombosis; details: collagen-coated surfaces, reported values; cited from earlier work
hemostasis = test: Template bleeding time; format: in vivo, baboon
APTT = test: Systemic anticoagulant effect (APTT) of antithrombotic agents; format: in vivo, baboon; details: dose not given
From the text: We also tested the effects of a variety of other agents on template bleeding time in the baboon, as well as on systemic anticoagulant effects (as measured by APTT).

human α-thrombin [3] = biological target: T1, human α-thrombin (Homo sapiens, UniProt P00734); test: Thrombin-catalyzed hydrolysis of Spectrozyme TH; format: biochemical; details: for inhibitory activity versus linker length: FIG. 6; for pKi: method of Example 9, Spectrozyme TH
T1 construct: proteolysis of the B-chain of α-thrombin; human α-thrombin-catalyzed hydrolysis of Spectrozyme TH
Method: The thrombin-catalyzed rate was monitored in a Cary 19 spectrophotometer at 405 nm and recorded continuously as a function of time. Kinetics were performed at room temperature (25°±1°C.) in a 0.05M Tris, pH 7.5, 0.1M NaCl buffer.
For a typical enzyme reaction, 1.0 ml of buffer was added to both the sample and reference cuvettes. […] Immediately following addition of substrate, the contents of the sample cuvette were mixed by use of a plastic pipette. The reaction was monitored spectrophotometrically for 5-15 minutes.
Initial rate velocities at each substrate concentration were expressed as moles Spectrozyme TH hydrolyzed/sec/mole thrombin. This was determined during the initial linear phase of the reaction (≤15% total hydrolysis of substrate) by measuring the slope of the hydrolytic reaction. Lineweaver-Burke plots were constructed accordingly, by plotting the inverse of the initial velocity against the inverse of the substrate concentration.

human α-thrombin [4] = test: human α-thrombin in 20 mM Tris-HCl pH 7.4 containing 0.1M NaCl
human α-thrombin [5] = biological target: T1, human α-thrombin; test: Cleavage of Hirulogs by thrombin (chromogenic and HPLC assays); format: biochemical; details: turnover rate of Hirulog hydrolysis by thrombin
Method: Aliquots (0.975 ml) of the reaction mixtures were removed at various times and mixed in a cuvette with 0.025 ml Spectrozyme TH (11 μM final concentration), a chromogenic substrate. The initial rate of reaction was determined and, based on control mixtures containing thrombin in the absence of Hirulog, the % inhibition was calculated.
An alternate method employed reverse-phase HPLC separation of aliquots from a Hirulog/thrombin reaction mixture. In this assay we added human α-thrombin (0.25 μM final concentrations) to a reaction vessel containing one of the above Hirulogs (12.5 μM final concentration). Aliquots (50 μl) were removed both prior to and at various times following the addition of thrombin. The aliquots were either flash frozen of injected directly onto the HPLC column. The HPLC system employed an Applied Biosystems Liquid Chromatography System equipped with an Aquapore C, column (0.46×10 cm). The column was equilibrated in 70% solvent A (0.1% TFA in water) and 30% solvent B (0.085% TFA/70% acetonitrile) and developed with a linear gradient of from 30 to 50% solvent B over 30 minutes at a flow rate of 1 ml/minute. The effluent stream was monitored at 214 nm. Peptide concentrations were determined by measurement of peak heights.
Both of the above-described assays allow determination of the rate of Hirulog hydrolysis by thrombin (expressed in M/min) and turnover rate (kcat; expressed in min^-1).

cleaved bond [1]: Arg-Pro, minor
Molecule: N-acetyl-Gly-Asp-phe-Leu-Ala-Glu-(Gly)3 -Val-Arg-Pro-(Gly)4 -Asn-Gly-Asp-Phe-Glu-Glu-Ile-Pro-Glu-Glu-Tyr-Leu-OH

Bleeding Time (hemostasis; in vivo): > 30 min
Molecule: CC1CNc2c(cccc2S(=O)(=O)N[C@@H](CCCNC(=N)N)C(=O)N2CC[C@@H](C)C[C@@H]2C(=O)O)C1 (stereo partly drawn) [Argipidine (MD805), argatroban (argipidine)]
ED50 [2]: 550 nmol/kg/min
APTT (% control) (APTT): > 900 % control

Molecule: CC[C@H](C)[C@H](NC(=O)[C@H](CCC(=O)O)NC(=O)[C@H](CCC(=O)O)NC(=O)[C@H](Cc1ccccc1)NC(=O)[C@H](CC(=O)O)NC(=O)CNC(=O)[C@H](CC(N)=O)NC(=O)CNC(=O)CNC(=O)CNC(=O)CNC(=O)CNC(=O)CNC(=O)CNC(=O)CNC(=O)[C@@H]1CCCN1C(=O)[C@H](CCCNC(=N)N)NC(=O)[C@@H]1CCCN1C(=O)[C@H](N)Cc1ccccc1)C(=O)N1CCC[C@H]1C(=O)N[C@@H](CCC(=O)O)C(=O)N[C@@H](CCC(=O)O)C(=O)N[C@@H](Cc1ccc(O)cc1)C(=O)N[C@@H](CC(C)C)C(=O)O [Hirulog-16]
inhibitory activity versus linker length (human α-thrombin [3]): comparable inhibitory activities

Molecule: H-(D-Phe)-Pro-(β-homoarginine)-Val-(Gly)4 -Asn-Gly-Asp-Phe-Glu-Glu-Ile-Pro-Glu-Glu-Tyr-Leu-OH
not cleaved (human α-thrombin [4]): kcat <0.01 min^-1; resistant to thrombin cleavage

Molecule: CC[C@H](C)[C@H](NC(=O)[C@H](CCC(=O)O)NC(=O)[C@H](CCC(=O)O)NC(=O)[C@H](Cc1ccccc1)NC(=O)[C@H](CC(=O)O)NC(=O)CNC(=O)[C@H](CC(N)=O)NC(=O)CNC(=O)CNC(=O)CNC(=O)CNC(=O)CNC(=O)CNC(=O)[C@@H]1CCCN1C(=O)[C@H](CCCNC(=N)N)NC(=O)[C@@H]1CCCN1C(=O)[C@H](N)Cc1ccccc1)C(=O)N1CCC[C@H]1C(=O)N[C@@H](CCC(=O)O)C(=O)N[C@@H](CCC(=O)O)C(=O)N[C@@H](Cc1ccc(O)cc1)C(=O)N[C@@H](CC(C)C)C(=O)O [Hirulog-15]
inhibitory activity versus linker length (human α-thrombin [3]): comparable inhibitory activities

cleaved bond [1]: Arg-Sar
Molecule: H-(D-Phe)-Pro-Arg-Sar-(Gly)5 -Asn-Gly-Asp-Phe-Glu-Glu-Ile-Pro-Glu-Glu-Tyr-Leu-OH

Molecule: CC[C@H](C)[C@H](NC(=O)[C@H](CCC(=O)O)NC(=O)[C@H](CCC(=O)O)NC(=O)[C@H](Cc1ccccc1)NC(=O)[C@H](CC(=O)O)NC(=O)CNC(=O)[C@H](CC(N)=O)NC(=O)CNC(=O)CNC(=O)CNC(=O)CNC(=O)CNC(=O)[C@H](CCCNC(=N)N)NC(=O)[C@@H]1CCCN1C(=O)[C@H](N)Cc1ccccc1)C(=O)N1CCC[C@H]1C(=O)N[C@@H](CCC(=O)O)C(=O)N[C@@H](CCC(=O)O)C(=O)N[C@@H](Cc1ccc(O)cc1)C(=O)N[C@@H](CC(C)C)C(=O)O [Hirulog-32]
kcat (human α-thrombin [5]): 8.92 s⁻¹
inhibition of thrombin-catalyzed hydrolysis of Spectrozyme TH (in words) (human α-thrombin [3]): poor inhibitors
pKi (human α-thrombin [3]; Ki): < 5.70

Molecule: CC[C@H](C)[C@H](NC(=O)[C@H](CCC(=O)O)NC(=O)[C@H](CCC(=O)O)NC(=O)[C@H](Cc1ccccc1)NC(=O)[C@H](CC(=O)O)NC(=O)CNC(=O)[C@H](CC(N)=O)NC(=O)CNC(=O)CNC(=O)[C@@H]1CCCN1C(=O)[C@H](CCCNC(=N)N)NC(=O)[C@@H]1CCCN1C(=O)[C@H](N)Cc1ccccc1)C(=O)N1CCC[C@H]1C(=O)N[C@@H](CCC(=O)O)C(=O)N[C@@H](CCC(=O)O)C(=O)N[C@@H](Cc1ccc(O)cc1)C(=O)N[C@@H](CC(C)C)C(=O)O [Hirulog-13]
reduction of activity (human α-thrombin [3]; 18 Å linker length, versus Hirulogs-8, -15, -16): more than 10 fold

Molecule: H-(D-Phe)-Pro-(β-homoarginine)-Pro-(Gly)4 -Asn-Gly-Asp-Phe-Glu-Glu-Ile-Pro-Glu-Glu-Tyr-Leu-OH
not cleaved (human α-thrombin [4]): kcat <0.01 min^-1; resistant to thrombin cleavage

Molecule: CC[C@H](C)[C@H](NC(=O)[C@H](CCC(=O)O)NC(=O)[C@H](CCC(=O)O)NC(=O)[C@H](Cc1ccccc1)NC(=O)[C@H](CC(=O)O)NC(=O)CNC(=O)[C@H](CC(N)=O)NC(=O)CNC(=O)CNC(=O)CNC(=O)CNC(=O)CNC(=O)CN(C)C(=O)[C@H](CCCNC(=N)N)NC(=O)[C@@H]1CCCN1C(=O)[C@H](N)Cc1ccccc1)C(=O)N1CCC[C@H]1C(=O)N[C@@H](CCC(=O)O)C(=O)N[C@@H](CCC(=O)O)C(=O)N[C@@H](Cc1ccc(O)cc1)C(=O)N[C@@H](CC(C)C)C(=O)O [Hirulog-10]
kcat (human α-thrombin [5]): 0.167 s⁻¹
inhibition of thrombin-catalyzed hydrolysis of Spectrozyme TH (in words) (human α-thrombin [3]): poor inhibitors
pKi (human α-thrombin [3]; Ki): < 5.70

Molecule: NC(N)=NCCC[C@H](NC(=O)[C@@H]1CCCN1C(=O)[C@H](N)Cc1ccccc1)C(=O)CCl [PPACK, D-Phe-Pro-Arg-CHCl2]
ED50 [2]: 75 nmol/kg/min
Bleeding Time (hemostasis; dose not given): 12 min
APTT (% control) (APTT): 287.9 % control

kcat (human α-thrombin [5]): 0.000933 s⁻¹
pKi (human α-thrombin [3]; read-out: Ki): 8.44
Molecule: N-acetyl-Gly-Asp-phe-Leu-Ala-Glu-(Gly)3 -Val-Arg-Pro-(Gly)4 -Asn-Gly-Asp-Phe-Glu-Glu-Ile-Pro-Glu-Glu-Tyr-Leu-OH [Hirulog-33]

Molecule: CC[C@H](C)[C@H](NC(=O)[C@H](CCC(=O)O)NC(=O)[C@H](CCC(=O)O)NC(=O)[C@H](Cc1ccccc1)NC(=O)[C@H](CC(=O)O)NC(=O)CNC(=O)[C@H](CC(N)=O)NC(=O)CNC(=O)CNC(=O)CNC(=O)CNC(=O)CNC(=O)C[C@H](CCCNC(=N)N)NC(=O)[C@@H]1CCCN1C(=O)[C@H](N)Cc1ccccc1)C(=O)N1CCC[C@H]1C(=O)N[C@@H](CCC(=O)O)C(=O)N[C@@H](CCC(=O)O)C(=O)N[C@@H](Cc1ccc(O)cc1)C(=O)N[C@@H](CC(C)C)C(=O)O [Hirulog-18a]
pKi (human α-thrombin [3]; Ki): 8.13

Molecule: CC[C@H](C)[C@H](NC(=O)[C@H](CCC(=O)O)NC(=O)[C@H](CCC(=O)O)NC(=O)[C@H](Cc1ccccc1)NC(=O)[C@H](CC(=O)O)NC(=O)CNC(=O)[C@H](CC(N)=O)NC(=O)CNC(=O)CNC(=O)CNC(=O)CNC(=O)CNC[C@H](CCCNC(=N)N)NC(=O)[C@@H]1CCCN1C(=O)[C@H](N)Cc1ccccc1)C(=O)N1CCC[C@H]1C(=O)N[C@@H](CCC(=O)O)C(=O)N[C@@H](CCC(=O)O)C(=O)N[C@@H](Cc1ccc(O)cc1)C(=O)N[C@@H](CC(C)C)C(=O)O [Hirulog-19]
pKi (human α-thrombin [3]; Ki): 7.70

Bleeding Time (hemostasis; dose not given): 10 min
Molecule: N=C(N)c1ccccc1 [Benzamidine, benzamidine]
ED50 [2]: 3000 nmol/kg/min
APTT (% control) (APTT): 757.6 % control

Molecule: CC[C@H](C)[C@H](NC(=O)[C@H](CCC(=O)O)NC(=O)[C@H](CCC(=O)O)NC(=O)[C@H](Cc1ccccc1)NC(=O)[C@H](CC(=O)O)NC(=O)CNC(=O)[C@H](CC(N)=O)NC(=O)CNC(=O)CNC(=O)CNC(=O)CNC(=O)[C@@H]1CCCN1C(=O)C[C@H](CCCNC(=N)N)NC(=O)[C@@H]1CCCN1C(=O)[C@H](N)Cc1ccccc1)C(=O)N1CCC[C@H]1C(=O)N[C@@H](CCC(=O)O)C(=O)N[C@@H](CCC(=O)O)C(=O)N[C@@H](Cc1ccc(O)cc1)C(=O)N[C@@H](CC(C)C)C(=O)O [Hirulog-18b]
pKi (human α-thrombin [3]; Ki): 8.34

cleaved bond [1]: Arg-Gly
Molecule: H-(D-Phe)-Pro-Arg-(Gly)5 -Asn-Gly-Asp-Phe-Glu-Glu-Ile-Pro-Glu-Glu-Tyr-Leu-OH

Molecule: CC[C@H](C)[C@H](NC(=O)[C@H](CCC(=O)O)NC(=O)[C@H](CCC(=O)O)NC(=O)[C@H](Cc1ccccc1)NC(=O)[C@H](CC(=O)O)NC(=O)CNC(=O)[C@H](CC(N)=O)NC(=O)CNC(=O)CNC(=O)CNC(=O)CNC(=O)[C@@H](NC(=O)C[C@H](CCCNC(=N)N)NC(=O)[C@@H]1CCCN1C(=O)[C@H](N)Cc1ccccc1)C(C)C)C(=O)N1CCC[C@H]1C(=O)N[C@@H](CCC(=O)O)C(=O)N[C@@H](CCC(=O)O)C(=O)N[C@@H](Cc1ccc(O)cc1)C(=O)N[C@@H](CC(C)C)C(=O)O [Hirulog-18c]
pKi (human α-thrombin [3]; Ki): 6.69

cleaved bond [1]: Arg-Pro, minor
Molecule: H-(D-Phe)-Pro-Arg-Pro-(Gly)4 -Asn-Gly-Asp-Phe-Glu-Glu-Ile-Pro-Glu-Glu-Tyr-Leu-OH
